Results taken from patent US20110288154A1, “RNA Interference Mediated Inhibition of Epithelial Sodium Channel (ENaC) Gene Expression Using Short Interfering Nucleic Acid (siNA)” (MERCK & CO., INC., priority 2008, published 2011).
[invAb] = inverted abasic unit; m = 2'-O-methyl; r = 2'-OH (RNA); f = 2'-fluoro

Experiments:
[1] = tested on: rSCNN1A (r ENaCα) mRNA; experiment: Screening of ENaCα siNAs in Rat H-4-II-E cells (quantitative RT-PCR); assay type: cell-based; design: Percent Reduction of the r ENaCα mRNA relative to a non-targeting control siNA (NTCs) / Rat % KD (efficacy of ENaCα mRNA knockdown): concentration or dose not given beside the values; settings: for Mean (rSCNN1A expression normalized to the level of rGAPDH) / Percent Reduction of the r ENaCα mRNA relative to a non-targeting control siNA (NTCs) / Avg ENaCα Expression (rSCNN1A) / Avg GAPDH Expression (rGAPDH): Rat H-4-II-E cells, n = 3; for Mean (rSCNN1A expression normalized to the level of rGAPDH) / Percent Reduction of the r ENaCα mRNA relative to a non-targeting control siNA (NTCs) / Avg GAPDH Expression (rGAPDH): 24 hours post-transfection; for Avg ENaCα Expression (rSCNN1A): harvested 24 hours post-transfection; for Avg GAPDH Expression (rGAPDH): housekeeping gene used for normalisation
Summary of the method: (§1)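 Rat H-4-II-E and mouse NIH 3T3 cells transfected with siNA–Lipofectamine 2000 complexes (25 nM siNA final; dose-response at constant lipid), screened at 24 h. qRT-PCR with ENaCα signal normalized to GAPDH or 36B4; % knockdown relative to non-targeting control siNA, triplicates; IC50 from sigmoidal variable-slope fit.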

[2] = tested on: mSCNN1A mRNA; experiment: Screening of ENaCα siNAs in mouse NIH 3T3 cells (quantitative RT-PCR); assay type: cell-based; design: Percent Reduction of the mSCNN1A mRNA relative to a non-targeting control siNA / Mouse % KD (efficacy of ENaCα mRNA knockdown): concentration or dose not given beside the values; settings: for Mean (mSCNN1A expression normalized to the level of m36B4) / Percent Reduction of the mSCNN1A mRNA relative to a non-targeting control siNA / Avg ENaCα Expression (mSCNN1A) / Avg 36B4 Expression: mouse NIH 3T3 cells, n = 3; for Mean (mSCNN1A expression normalized to the level of m36B4) / Percent Reduction of the mSCNN1A mRNA relative to a non-targeting control siNA / Avg 36B4 Expression: 24 hours post-transfection; for Avg ENaCα Expression (mSCNN1A): harvested 24 hours post-transfection; for Avg 36B4 Expression: housekeeping gene used for normalisation
Summary of the method: as §1

B AGccAGuGGAGccuGuGGu TTB / ACCAcAGGcuccAcuGGcuUU (sense AGCCAGUGGAGCCUGUGGUTT; antisense ACCACAGGCUCCACUGGCUUU; siRNA; sense: DNA at AGT, 2'-fluoro at CU, [invAb] at 5' end, 3' end, backbone not given here; antisense: sugars from the 5' end rrrmfmmmffffmffmmffmm, backbone not given here) [Site 1756]
Mean (rSCNN1A expression normalized to the level of rGAPDH) [1]: 0.57
Percent Reduction of the r ENaCα mRNA relative to a non-targeting control siNA (NTCs) [1]: 38.3%
Avg ENaCα Expression (rSCNN1A) [1]: 23.08
Avg GAPDH Expression (rGAPDH) [1]: 40.27
Mean (mSCNN1A expression normalized to the level of m36B4) [2]: 0.12
Percent Reduction of the mSCNN1A mRNA relative to a non-targeting control siNA [2]: 13.5%
Avg ENaCα Expression (mSCNN1A) [2]: 2.58
Avg 36B4 Expression [2]: 21.66

B GccAuccGccuGGuGuGcu TTB / AGCAcAccAGGcGGAuGGcUU (sense GCCAUCCGCCUGGUGUGCUTT; antisense AGCACACCAGGCGGAUGGCUU; siRNA; sense: DNA at AGT, 2'-fluoro at CU, [invAb] at 5' end, 3' end, backbone not given here; antisense: sugars from the 5' end rrrmfmffmmmfmmrfmmfmm, backbone not given here) [Site 310]
Mean (rSCNN1A expression normalized to the level of rGAPDH) [1]: 0.92
Percent Reduction of the r ENaCα mRNA relative to a non-targeting control siNA (NTCs) [1]: 28.3%
Avg ENaCα Expression (rSCNN1A) [1]: 18.39
Avg GAPDH Expression (rGAPDH) [1]: 20.12
Mean (mSCNN1A expression normalized to the level of m36B4) [2]: 0.20
Percent Reduction of the mSCNN1A mRNA relative to a non-targeting control siNA [2]: 16.6%
Avg ENaCα Expression (mSCNN1A) [2]: 3.19
Avg 36B4 Expression [2]: 16.02

B uuAuGGAuGAuGGuGGcuu TTB / AAGccAccAucAuccAuAAUU (sense UUAUGGAUGAUGGUGGCUUTT; antisense AAGCCACCAUCAUCCAUAAUU; siRNA; B caps on sense ends, letter-case modifications not given here, further chemistry not given here) [Site 1181]
Mean (rSCNN1A expression normalized to the level of rGAPDH) [1]: 0.41
Percent Reduction of the r ENaCα mRNA relative to a non-targeting control siNA (NTCs) [1]: 68.1%
Avg ENaCα Expression (rSCNN1A) [1]: 10.34
Avg GAPDH Expression (rGAPDH) [1]: 24.78
IC50 ([1]; rat cell line, dose response, read-out: Rat IC50 (potency of ENaCα mRNA knockdown)): 1 nM
Rat % KD (efficacy of ENaCα mRNA knockdown) ([1]; rat cell line, summary): 68%
Mean (mSCNN1A expression normalized to the level of m36B4) [2]: 0.04
Percent Reduction of the mSCNN1A mRNA relative to a non-targeting control siNA [2]: 84.4%
Avg ENaCα Expression (mSCNN1A) [2]: 0.54
Avg 36B4 Expression [2]: 15.48
IC50 ([2]; mouse cell line, dose response, read-out: Mouse IC50 (potency of ENaCα mRNA knockdown)): 4.1 nM
Mouse % KD (efficacy of ENaCα mRNA knockdown) ([2]; mouse cell line, summary): 84%

B uccuGuccAAccuGGGcAG TTB / CUGcccAGGuuGGAcAGGAUU (sense UCCUGUCCAACCUGGGCAGTT; antisense CUGCCCAGGUUGGACAGGAUU; siRNA; sense: DNA at AGT, 2'-fluoro at CU, [invAb] at 5' end, 3' end, backbone not given here; antisense: sugars from the 5' end rrrfffmmmffmmmfmmmmmm, backbone not given here) [Site 1739]
Mean (rSCNN1A expression normalized to the level of rGAPDH) [1]: 1.00
Percent Reduction of the r ENaCα mRNA relative to a non-targeting control siNA (NTCs) [1]: −8.7%
Avg ENaCα Expression (rSCNN1A) [1]: 32.26
Avg GAPDH Expression (rGAPDH) [1]: 35.80
Mean (mSCNN1A expression normalized to the level of m36B4) [2]: 0.13
Percent Reduction of the mSCNN1A mRNA relative to a non-targeting control siNA [2]: 7.3%
Avg ENaCα Expression (mSCNN1A) [2]: 2.87
Avg 36B4 Expression [2]: 22.65

B cAcuccuGcuuccAGGAGA TTB / UCUccuGGAAGcAGGAGuGUU (sense CACUCCUGCUUCCAGGAGATT; antisense UCUCCUGGAAGCAGGAGUGUU; siRNA; sense: DNA at AGT, 2'-fluoro at CU, [invAb] at 5' end, 3' end, backbone not given here; antisense: sugars from the 5' end rrrfffmmmmmfmmmmmfmmm, backbone not given here) [Site 1351]
Mean (rSCNN1A expression normalized to the level of rGAPDH) [1]: 0.72
Percent Reduction of the r ENaCα mRNA relative to a non-targeting control siNA (NTCs) [1]: 43.7%
Avg ENaCα Expression (rSCNN1A) [1]: 18.06
Avg GAPDH Expression (rGAPDH) [1]: 24.87
Mean (mSCNN1A expression normalized to the level of m36B4) [2]: 0.22
Percent Reduction of the mSCNN1A mRNA relative to a non-targeting control siNA [2]: 9.6%
Avg ENaCα Expression (mSCNN1A) [2]: 2.56
Avg 36B4 Expression [2]: 11.91

B cAGAGcAGAAuGAcuucAu TTB / AUGAAGucAuucuGcucuGUU (sense CAGAGCAGAAUGACUUCAUTT; antisense AUGAAGUCAUUCUGCUCUGUU; siRNA; sense: DNA at AGT, 2'-fluoro at CU, [invAb] at 5' end, 3' end, backbone not given here; antisense: sugars from the 5' end rrrmmmffmffffmffffmmm, backbone not given here) [Site 1100]
Mean (rSCNN1A expression normalized to the level of rGAPDH) [1]: 0.83
Percent Reduction of the r ENaCα mRNA relative to a non-targeting control siNA (NTCs) [1]: 35.4%
Avg ENaCα Expression (rSCNN1A) [1]: 21.68
Avg GAPDH Expression (rGAPDH) [1]: 26.15
Mean (mSCNN1A expression normalized to the level of m36B4) [2]: 0.24
Percent Reduction of the mSCNN1A mRNA relative to a non-targeting control siNA [2]: −1.5%
Avg ENaCα Expression (mSCNN1A) [2]: 3.43
Avg 36B4 Expression [2]: 14.25

B cGcAuGAAGAcGGccuucu TTB / AGAAGGccGucuucAuGcGUU (chain 1 CGCAUGAAGACGGCCUUCUTT; chain 2 AGAAGGCCGUCUUCAUGCGUU; siRNA; chain 1: DNA at AGT, 2'-fluoro at CU, [invAb] at 5' end, 3' end, backbone not given here; chain 2: sugars from the 5' end rrrmmmffmfffffmfmfmmm, backbone not given here) [Site 340]
Mean (rSCNN1A expression normalized to the level of rGAPDH) [1]: 1.07
Percent Reduction of the r ENaCα mRNA relative to a non-targeting control siNA (NTCs) [1]: 16.7%
Avg ENaCα Expression (rSCNN1A) [1]: 22.68
Avg GAPDH Expression (rGAPDH) [1]: 21.20
Mean (mSCNN1A expression normalized to the level of m36B4) [2]: 0.23
Percent Reduction of the mSCNN1A mRNA relative to a non-targeting control siNA [2]: 5.4%
Avg ENaCα Expression (mSCNN1A) [2]: 3.35
Avg 36B4 Expression [2]: 14.93

B cAcAAccGcAuGAAGAcGG TTB / CCGucuucAuGcGGuuGuGUU (chain 1 CACAACCGCAUGAAGACGGTT; chain 2 CCGUCUUCAUGCGGUUGUGUU; siRNA; chain 1: DNA at AGT, 2'-fluoro at CU, [invAb] at 5' end, 3' end, backbone not given here; chain 2: sugars from the 5' end rrrfffffmfmfmmffmfmmm, backbone not given here) [Site 334]
Mean (rSCNN1A expression normalized to the level of rGAPDH) [1]: 0.85
Percent Reduction of the r ENaCα mRNA relative to a non-targeting control siNA (NTCs) [1]: 33.7%
Avg ENaCα Expression (rSCNN1A) [1]: 16.10
Avg GAPDH Expression (rGAPDH) [1]: 19.11
Mean (mSCNN1A expression normalized to the level of m36B4) [2]: 0.21
Percent Reduction of the mSCNN1A mRNA relative to a non-targeting control siNA [2]: 12.3%
Avg ENaCα Expression (mSCNN1A) [2]: 3.57
Avg 36B4 Expression [2]: 16.98
